From patent US20110275672A1, “METHODS FOR TREATING CANCERS USING POLYMORPHIC FORMS OF 3-(4-AMINO-1-OXO-1,3 DIHYDRO-ISOINDOL-2-YL)-PIPERIDINE-2,6-DIONE” (Celgene Corporation, priority 2003, published 2011)
“And” between values parts separate entries of the source, which are not always exact repeats. Equal entries are not always repeated. Where two headings read alike, the source gives them in different places.

Tests used:
TNF-α production [1] = details: cited from earlier work; for IC50: human whole blood, LPS, read-out: IC50 for inhibiting production of TNF-α following LPS-stimulation of human whole blood
Hs Sultan cells = test: Inhibition of MM cell proliferation, [3H]-thymidine uptake, Hs Sultan; assay type: cell-based
Method: (§1) The uptake of [^3H]-thymidine by different MM cell lines (MM.1S, Hs Sultan, U266 and RPMI-8226) was measured as an indicator of the cell proliferation.
(§2) Uptake [^3H]-thymidine by different MM cell lines (MM.1S, Hs Sultan, U266 and RPMI-8226) was measured as an indicator of cell proliferation. Cells were incubated in the presence of compounds for 48 hours; [^3H]-thymidine was included for the last 8 hours of the incubation period.

MM.1S cells = test: Inhibition of MM cell proliferation, [3H]-thymidine uptake, MM.1S; assay type: cell-based; details: for IC50: Homo sapiens, MM1.S
Method: as §1, §2

TNF-α production [2] = details: human PBMC, cited from earlier work; for IC50: LPS, read-out: IC50 for inhibiting production of TNF-α following LPS-stimulation of PBMC
[3] = Pharmacokinetics of Actimid in relapsed/refractory multiple myeloma patients; assay type: in vivo, human
Method: 6.5.1 Treatment of Relapsed Multiple Myeloma p 4-(Amino)-2-(2,6-dioxo(3-piperidyl))-isoindoline-1,3-dione (Actimid™) was administered to patients with relapsed/refractory multiple myeloma. The study was conducted in compliance with Good Clinical Practices. Patients were at least 18 years old, had been diagnosed with multiple myeloma (with paraprotein in serum and/or urine), and were considered refractory to treatment after at least two cycles of treatment, or have relapsed after two cycles of treatment.
Patients who have progressive disease, according to the Southwest Oncology Group (SWOG) criteria, on their prior regimen are considered treatment refractory. Relapse following remission is defined as >25% increase in M component from baseline levels; reappearance of the M paraprotein that had previously disappeared; or a definite increase in the size and number of lytic bone lesions recognized on radiographs. Patients may have had prior therapy with thalidomide, provided they were able to tolerate the treatment. A Zubrod performance status of 0 to 2 is required for all patients.
4-(Amino)-2-(2,6-dioxo(3-piperidyl))-isoindoline-1,3-dione is administered to patients at doses of 1, 2, 5, or 10 mg/day for up to four weeks; at each dose level, three patients are initially enrolled. Dosing occurs at approximately the same time each morning; all doses are administered in the fasted state (no eating for at least two hours prior to dosing and two hours after dosing). 4-(Amino)-2-(2,6-dioxo(3-piperidyl))-isoindoline-1,3-dione doses are administered in an ascending fashion such that patients in the first cohort receive the lowest dose of 4-(amino)-2-(2,6-dioxo(3-piperidyl))-isoindoline-1,3-dione (1 mg/day) and escalation to the next higher dose level occurs only following the establishment of safety and tolerability at the current dose. If one out of three patients at any dose level experience dose limiting toxicity (DLT), three additional patients are enrolled at that dose. If none of the three additional patients experience DLT, escalation to the next dose level occurs; dose escalations continue in a similar fashion until the MTD is established or the maximum daily dose (10 mg/day) is attained. However, if one of the three additional patients enrolled experiences DLT, the MTD has been reached. If two or more of the three additional patients enrolled experience DLT, the MTD is judged to have been exceeded and three additional patients are enrolled at the preceding dose level to confirm the MTD. Once the MTD has been identified, four additional patients are enrolled at that dose level so that a total of 10 patients is treated at the MTD.
Blood sampling for analysis of pharmacokinetic parameters is performed on Days 1 and 28 according to the following sampling schedule: pre-dose, 0.25, 0.5, 0.75, 1, 1.5, 2, 2.5, 3, 4, 6, 8, 10, 12, 18, and 24 hours post-dose. An additional blood sample is collected at each weekly visit for the determination of 4-(amino)-2-(2,6-dioxo(3-piperidyl))-isoindoline-1,3-dione levels. Total urine collections are also made with urine pooled according to the following time intervals post-dose: 0 to 4, 4 to 8, 8 to 12, and 12 to 24 hours. Safety assessments are made by monitoring adverse events, vital signs, ECGs, clinical laboratory evaluations (blood chemistry, hematology, lymphocyte phenotyping, and urinalysis), and physical examination at specific times during the study.

[4] = Cardiovascular and respiratory function in anesthetized dogs; assay type: in vivo, Beagle dogs
From the text: Two groups of Beagle dogs (2/sex/group) are used.

IL-2 = test: Augmentation of IL-2 production following TCR activation of PBMC; assay type: cell-based
[5] = Phase 1 studies in refractory or relapsed multiple myeloma patients: dose limiting toxicity; assay type: in vivo
Method: (§3) Patients started 3-(4-amino-1-oxo-1,3-dihydro-isoindol-2-yl) -piperidine -2,6-dione treatment at 5 mg/day with subsequent escalation to 10, 25, and 50 mg/day. […] Patients were evaluated for adverse events at each visit and the severity of these events was graded according to the National Cancer Institute (NCI) Common Toxicity Criteria. Patients were discontinued if they experienced DLT (Grade 3 or greater non-hematological, or Grade 4 hematological toxicity).
The second cohort of 3 patients subsequently commenced therapy at 10 mg/day.

T-cells = test: Stimulation of T-cell proliferation following primary induction by T-cell receptor (TCR) activation; assay type: cell-based
[6] = LPS-stimulated production of IL-113 by PBMC; assay type: cell-based
IL-6 = test: LPS-stimulated production of IL-6 by PBMC; assay type: cell-based
IL-10 = test: LPS-stimulated production of IL-10 by PBMC; assay type: cell-based
[7] = Phase 1 study in patients with solid tumors: dose limiting toxicity; assay type: in vivo; details: initial group of 20 patients with solid tumors, 5 escalated to 50 mg/day over 4 weeks
Method: Patients who, experienced clinical benefit were permitted to continue on treatment as Named Patients.
The study initially enrolled 20 patients and was subsequently amended to enroll 16 additional patients (adrenal carcinoma, NSCLC, malignant mesothelioma, breast cancer, metastatic melanoma (8), renal cell cancer (4)) at a higher dose. The 16 additional patients were given weekly escalating doses of 25 mg/day, 50 mg/day, 75 mg/day, 100 mg/day, 125 mg/day, and 150 mg/day over a 6-week period with continuing treatment for an additional six weeks.
The study design dictates that at least 3 patients must be enrolled at a dose level and have completed 28 days of treatment prior to enrollment of patients at the next higher dose level. […] Patients will be escalated to 10, 20, 25, and 30 mg/day provided there is no toxicity.
If, at any given dose level in either study, one out of three patients experiences toxicity, three additional patients must be treated at that particular dose. If, however, two out of six patients experience DLT, the MTD is judged to have been exceeded. No further dose escalations are to occur and additional patients are to be enrolled at the previous dose level. The dose of 3-(4-amino-l-oxo-1,3-dihydro-isoindol-2-yl)-piperidine-2,6-dione administered is escalated until the MTD is achieved or the maximum daily dose […] is reached.

[8] = Phase 1 studies in refractory or relapsed multiple myeloma patients: pharmacokinetics; assay type: in vivo
Method: as §3
Blood and urine samples were collected for analysis of pharmacokinetic parameters on Days 1 and 28. Blood samples were collected according to the following sampling schedule: pre-dose, 0.25, 0.5, 0.75, 1, 1.5, 2, 2.5, 3, 4, 6, 8, 10, 12, 18, and 24 hours post-dose. In addition, a blood sample was collected at each weekly clinic visit for 3-(4-amino-1-oxo-1,3-dihydro-isoindol-2-yl)-piperidine-2,6-dione determination. Total urine was collected and pooled according to the following time intervals post-dose: 0 to 4, 4 to 8, 8 to 12, and 12 to 24 hours. […] Bone marrow aspirations and/or tissue biopsy are also performed at Months 3, 6 and 12 if a patient's paraprotein serum concentration or 24-hour urine protein excretion declined to the next lower level, based on best response criteria.

IFN-γ = test: Augmentation of IFN-γ production following TCR activation of T-cells; assay type: cell-based
metastatic melanoma = test: Treatment of metastatic melanoma patients; assay type: in vivo, human
Method: The dose was then increased every seven days to 10 mg/day, 25 mg/day, and 50 mg/day, respectively, for a total of four weeks on therapy.

TNF-α production [9] = test: Inhibition of TNF-α production following LPS-stimulation of human PBMC; assay type: cell-based

## Nc1cccc2c1C(=O)N(C1CCC(=O)NC1=O)C2=O (centres unmarked) [Actimid, 4-(Amino)-2-(2,6-dioxo(3-piperidyl))-isoindoline-1,3-dione]
TNF-α production [1]
  IC50 for inhibiting production of TNF-α following LPS-stimulation of human whole blood: 6.83 ng/mL
  IC50: ~25 nM
Hs Sultan cells; read-out: concentration achieving 50% inhibition of proliferation
  IC50: 0.00273 µg/mL to 0.0273 µg/mL and 10 nM to 100 nM
MM.1S cells; read-out: concentration achieving 50% inhibition of proliferation, MM.IS cells
  IC50: 0.00273 µg/mL to 0.0273 µg/mL and 10 nM to 100 nM
TNF-α production [2]
  IC50: ~24 nM
  IC50 for inhibiting production of TNF-α following LPS-stimulation of PBMC: 6.55 ng/mL
[3]; Day 1
  fold increase in AUC(01) with a 5-fold increase in dose: 3.6 fold
  fold increase in Cmax with a five-fold higher dose: 3.2 fold
[3]; Week 4
  fold increase in AUC(01) with a 5-fold increase in dose: 2.3 fold
  fold increase in Cmax with a five-fold higher dose: 2.2 fold
[3]; all dose levels, relapsed multiple myeloma patients
  absorption: steadily absorbed
[3]; human, in vivo
  decline of plasma concentrations after reaching Cmax: monophasic manner
  median Tmax: 3 to 4 h
[3]; human, in vivo, 1 mg
  CL/F: 114.75 mL/min
[3]; human, in vivo, 2 mg
  CL/F: 121.43 mL/min
[3]; human, in vivo, 5 mg
  CL/F: 182.31 mL/min
  t½: 6.5 h

## Nc1cccc2c1CN(C1CCC(=O)NC1=O)C2=O (centres unmarked) [3-(4-amino-1-oxo-1,3-dihydro-isoindol-2-yl)-piperidine-2,6-dione]
TNF-α production [1]
  IC50 for inhibiting production of TNF-α following LPS-stimulation of human whole blood: 103.6 ng/mL
  IC50: ~480 nM
[4]; anesthetized Beagle dogs, all doses (2, 10, and 20 mg/kg), infusion through the jugular vein
  cardiovascular and respiratory changes compared to the vehicle control group: minimal
[4]; anesthetized dogs, higher doses (10, 20 mg/kg)
  increase in arterial blood pressure at higher doses: not seen at higher doses
[4]; anesthetized dogs, low dose
  duration of the increase in arterial blood pressure: approximately 15 minutes
[4]; anesthetized dogs, low dose (2 mg/kg), infusion
  arterial blood pressure after small increase (from 94 mmHg): 101 mmHg
[4]; anesthetized dogs, common to control and treated groups
  deviations in femoral blood flow, respiratory parameters, and Qtc interval: not considered treatment-related
Hs Sultan cells; read-out: concentration resulting in 50% inhibition of cell proliferation, 48 hours, [3H]-thymidine last 8 hours
  IC50: 1000 nM
MM.1S cells; read-out: concentration resulting in 50% inhibition of cell proliferation, MM.1S cells, 48 hours, [3H]-thymidine last 8 hours
  IC50: 400 nM
IL-2
  times more potent than thalidomide in augmenting the production of IL-2: 50-100 times
[5]; 5 mg/day for 28 days, first cohort of 3 patients
  dose limiting toxicity (DLT): without any dose limiting toxicity
[5]; 10 mg/day, second cohort of 3 patients
  tolerability: tolerated treatment well
T-cells
  times more potent than thalidomide in stimulating the proliferation of T-cells: 50-100 times
[6]
  LPS-stimulated production of IL-113 by PBMC: dose-dependent inhibition
IL-6
  LPS-stimulated production of IL-6 by PBMC: dose-dependent inhibition
IL-10
  production of the anti-inflammatory cytokine IL-10: increased production
[7]
  DLTs: No DLTs were reported
[8]; human, in vivo
  accumulation with multiple dosing: no evidence of accumulation
  half-live in patients, mean: 8 h
  half-live in patients, range: up to 17 hours
  plasma concentration profile: double peaks were observed
[8]; multiple myeloma patients
  clearance compared to healthy volunteers: lower
  exposure (Cmax and AUC) compared to healthy male volunteers: slightly higher
TNF-α production [2]
  IC50: ~100 nM
  IC50 for inhibiting production of TNF-α following LPS-stimulation of PBMC: 25.9 ng/mL
IFN-γ
  times more potent than thalidomide in augmenting the production of IFN-γ: 50-100 times
Metastatic melanoma; first four weeks of treatment, 5 escalated weekly to 10, 25, 50 mg/day
  patients showing disease stabilization or a partial response: Five of the 13
Metastatic melanoma; metastatic melanoma patients
  duration of response: approximately six
  tumor response in cutaneous and subcutaneous lesions: five
  tumor response in liver: one
  tumor response in lymph nodes: two
TNF-α production [9]
  LPS-stimulated production of TNF-α by PBMC: dose-dependent inhibition

## O=C1CCC(N2C(=O)c3ccccc3C2=O)C(=O)N1 (centres unmarked) [thalidomide, reference compound]
Hs Sultan cells; concentrations up to 100 μm, 48 hours
  inhibition of cell proliferation: 20%
MM.1S cells; MM.1S cells, concentrations up to 100 μm, 48 hours
  inhibition of cell proliferation: 15%
TNF-α production [2]
  IC50: ~194000 nM
  IC50 for inhibiting production of TNF-α following LPS-stimulation of PBMC: 50200 ng/mL
